Assay results as given in patent US20100273189A1, “NON SEPARATION ASSAYS WITH SELECTIVE SIGNAL INHIBITORS” (BECKMAN COULTER, INC., priority 2009, published 2010).
Values joined by “and” are separate entries in the source; they are usually repeats but may differ in a detail not shown here. Identical values can stand only once.

Columns and labels:
Format in all cases: biochemical
[1] = system: myoglobin; assay: Myoglobin assay, AK-Ab1 particle + HRP-Ab2 conjugate; details: ascorbic acid employed
Experimental: (§1) This example describes a method of detecting myoglobin using a AK-Abl particle prepared as set forth in Example 3 and a HRP-Ab2 conjugate prepared as set forth in Example 4 where Ab2 represents an antibody to myoglobin. This method employed ascorbic acid to decrease background signal.
(§2) HRP-Ab2 conjugate suspensions were prepared at 1.0 μg/mL and contained either 0 or 1 mM ascorbic acid. Samples consisted of human serum samples with the indicated mounts of myoglobin added or no myoglobin as a control. The test procedure consisted of adding 20 μL of 1.0 μg/mL HRP-Ab2 conjugate and 30 μl of MES buffer containing 1 mg/mL BSA and 1 mg/mL MIgG, pH 5.9 to the reaction vessel. Next, 25 μL of patient serum sample was added, followed by 25 μL of 5.0 mg/mL AK-Abl conjugate suspension thereby obtaining 100 μL of total volume in the reaction vessel. After 15.2 minutes, 1004 of trigger solution A was added to the reaction vessel and the light intensity was recorded on the modified DxI instrument. Chemiluminescence intensity is expressed in Relative Light Units (RLU).

[2] = biological target: T1, HRP (Armoracia rusticana, UniProt P00433); assay: HRP model system on silica particles, with and without ascorbic acid; details: 150 μM Ascorbate; for RLU: replicates
T1 construct: purchased Roche Diagnostics, Indianapolis, Ind., USA
T1 sequence (P00433 31-338 limits assumed): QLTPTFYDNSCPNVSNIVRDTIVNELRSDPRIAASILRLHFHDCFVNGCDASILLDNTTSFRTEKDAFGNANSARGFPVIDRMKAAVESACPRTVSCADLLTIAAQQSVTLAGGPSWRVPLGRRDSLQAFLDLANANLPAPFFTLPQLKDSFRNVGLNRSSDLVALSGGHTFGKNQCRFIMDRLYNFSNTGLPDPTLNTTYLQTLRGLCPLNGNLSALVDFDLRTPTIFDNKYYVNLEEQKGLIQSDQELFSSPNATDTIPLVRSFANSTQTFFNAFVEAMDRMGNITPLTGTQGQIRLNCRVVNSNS
Experimental: In order to further investigate the effect of specific solid phase particles on the assays described herein, a comparison of a variety of particle types was conducted, including silica, polymethylmethacrylate (PMMA). Carboxyl modified PMMA particles (PolyAn GmbH, Berlin) were labeled with AK and biotin as described in Example 3, followed by coating with streptavidin. Silica particles were reacted with 3-aminopropylsiloxane in 1 mM acetic acid to provide an amine reactive group. The amine functional groups were reacted with AK-3 and biotin-LC-sulfoNHS, followed by coating with streptavidin.
Signal generation with Silica and PMMA particles. Assays using the HRP model system, as generally described in Example 1, were conducted on silica particles and PMMA particles, with and without ascorbic acid in the reaction mixture. The assays were run on a modified DxI instrument as described above. The assay conditions consisted of combining 45 μL BUFFER II (with or without ascorbic acid), 25 μL of particle suspension, and 15 μL of sample and incubating for 30 min. Then 100 μL of trigger solution A was added to the reaction vessel and the light intensity was recorded.

[3] = system: CK-MB; assay: CK-MB assay, AK-Ab1 particle + HRP-Ab2 conjugate; details: for RLU: replicates
Experimental: as §1, with “detecting CK-MB (Creatine Kinase Myocardial Band)” for “detecting myoglobin”, “using an” for “using a”, “to CK-MB.” for “to myoglobin.”
as §2, with “CK-MB” for “myoglobin”, “15” for “20”, “35 μL” for “30 μl”, “1.0” for “5.0”, “100 μL” for “1004”

[4] = With Ascorbate, S1, CK-MB 600 pg/mL
[5] = With Ascorbate, S2, CK-MB 3200 pg/mL
[6] = With Ascorbate, S3, CK-MB 9150 pg/mL
[7] = With Ascorbate, S4, CK-MB 26300 pg/mL
[8] = With Ascorbate, S5, CK-MB 94600 pg/mL
[9] = With Ascorbate, S6, CK-MB 268750 pg/mL
[10] = With Ascorbate, S7, CK-MB 1500000 pg/mL

O=C1O[C@H]([C@@H](O)CO)C(O)=C1O [Ascorbic Acid, Ascorbic acid]
RLU ([1]; S0, 11.4 ng/mL): 1,183 RLU
RLU ([1]; S1, 56.3 ng/mL): 5,557 RLU
S/S0 ([1]; S1, 56.3 ng/mL): 5
RLU ([1]; S2, 221 ng/mL): 31,947 RLU
S/S0 ([1]; S2, 221 ng/mL): 27
RLU ([1]; S3, 864 ng/mL): 190,076 RLU
S/S0 ([1]; S3, 864 ng/mL): 161
RLU ([1]; S4, 2016 ng/mL): 1,315,465 RLU
S/S0 ([1]; S4, 2016 ng/mL): 1,048
RLU ([1]; S5, 3136 ng/mL): 4,667,341 RLU
S/S0 ([1]; S5, 3136 ng/mL): 3,945
Mean RLU ([2]; HRP 0 ng/ml): 263 RLU
S/S0 ([2]; HRP 0 ng/ml): 1.0
RLU ([2]; HRP 0 ng/ml): 256 RLU and 260 RLU and 272 RLU
Mean RLU ([2]; HRP 1 ng/ml): 6,988 RLU
S/S0 ([2]; HRP 1 ng/ml): 26.6
RLU ([2]; HRP 1 ng/ml): 6,712 RLU and 6,844 RLU and 7,408 RLU
Mean RLU ([2]; HRP 10 ng/ml): 309,873 RLU
S/S0 ([2]; HRP 10 ng/ml): 1178.2
RLU ([2]; HRP 10 ng/ml): 310,600 RLU and 278,320 RLU and 340,700 RLU
Mean RLU ([2]; HRP 100 ng/ml): 2,426,677 RLU
S/S0 ([2]; HRP 100 ng/ml): 9226.9
RLU ([2]; HRP 100 ng/ml): 2,306,036 RLU and 2,477,760 RLU and 2,496,236 RLU
Mean RLU ([2]; HRP 250 ng/ml): 2,533,168 RLU
S/S0 ([2]; HRP 250 ng/ml): 9631.8
RLU ([2]; HRP 250 ng/ml): 2,535,712 RLU and 2,523,068 RLU and 2,540,724 RLU
RLU ([3]; With Ascorbate (1 mM in HRP-Ab2 conjugate), Buffer, CK-MB 0 pg/mL): 1616 RLU and 1536 RLU and 1592 RLU
Mean RLU ([3]; With Ascorbate, Buffer, CK-MB 0 pg/mL): 1581 RLU
Mean RLU [3, 4]: 883 RLU
RLU [3, 4]: 948 RLU and 852 RLU and 848 RLU
Mean RLU [3, 5]: 4051 RLU
S/S1 [3, 5]: 4.59
RLU [3, 5]: 4080 RLU and 3928 RLU and 4144 RLU
Mean RLU [3, 6]: 13295 RLU
S/S1 [3, 6]: 15.06
RLU [3, 6]: 12756 RLU and 13108 RLU and 14020 RLU
Mean RLU [3, 7]: 40407 RLU
S/S1 [3, 7]: 45.78
RLU [3, 7]: 41384 RLU and 39448 RLU and 40388 RLU
Mean RLU [3, 8]: 232489 RLU
S/S1 [3, 8]: 263.39
RLU [3, 8]: 222832 RLU and 249468 RLU and 225168 RLU
Mean RLU [3, 9]: 1195177 RLU
S/S1 [3, 9]: 1354.05
RLU [3, 9]: 1187736 RLU and 1121256 RLU and 1276540 RLU
Mean RLU [3, 10]: 3324829 RLU
S/S1 [3, 10]: 3766.80
RLU [3, 10]: 3266772 RLU and 3290024 RLU and 3417692 RLU
